Data on 5 compounds can be found in ChEMBL document CHEMBL1201862, “PubChem BioAssay data set” (2004).

In assay [1] the target is T1, Ubiquitin-conjugating enzyme E2 N (Homo sapiens, UniProt P61088).
T1 sequence (P61088 whole entry): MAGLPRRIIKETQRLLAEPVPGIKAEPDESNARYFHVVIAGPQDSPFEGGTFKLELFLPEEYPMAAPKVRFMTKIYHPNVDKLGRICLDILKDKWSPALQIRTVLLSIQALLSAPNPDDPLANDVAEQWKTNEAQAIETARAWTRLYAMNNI
It is filed as functional.

Assay [2] concerns the target T2, DNA repair protein RAD52 homolog (Homo sapiens, UniProt P43351).
T2 sequence (P43351 whole entry): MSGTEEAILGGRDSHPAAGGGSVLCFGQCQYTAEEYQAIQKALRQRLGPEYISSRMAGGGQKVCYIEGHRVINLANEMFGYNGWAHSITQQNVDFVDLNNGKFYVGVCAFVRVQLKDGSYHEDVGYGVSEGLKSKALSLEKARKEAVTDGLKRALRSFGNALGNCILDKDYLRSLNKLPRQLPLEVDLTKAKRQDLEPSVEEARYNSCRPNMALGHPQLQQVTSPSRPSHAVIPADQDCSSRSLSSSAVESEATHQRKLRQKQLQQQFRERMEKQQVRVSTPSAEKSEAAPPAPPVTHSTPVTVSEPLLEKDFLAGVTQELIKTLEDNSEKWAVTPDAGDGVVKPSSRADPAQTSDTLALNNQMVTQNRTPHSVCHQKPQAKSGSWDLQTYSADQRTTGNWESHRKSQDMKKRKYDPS
It is filed as functional, biochemical.

The target in assay [3] is T3, Sentrin-specific protease 8 (Homo sapiens, UniProt Q96LD8).
T3 sequence (Q96LD8 whole entry): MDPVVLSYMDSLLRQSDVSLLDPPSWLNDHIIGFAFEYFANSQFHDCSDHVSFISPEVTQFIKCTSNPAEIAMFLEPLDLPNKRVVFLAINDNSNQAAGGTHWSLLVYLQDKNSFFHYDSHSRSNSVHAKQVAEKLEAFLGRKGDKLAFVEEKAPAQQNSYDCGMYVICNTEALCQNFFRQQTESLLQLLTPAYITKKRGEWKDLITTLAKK
The class given is functional.

Assay [4] concerns the target T1, Ubiquitin-conjugating enzyme E2 N. It is filed as functional. This is another data set of the same source.
The target of assay [5] is T3, Sentrin-specific protease 8. The class given is functional. This is another data set of the same source.
Another assay deals with Nonstructural protein 1 (Influenza A virus, UniProt Q194T2). It is filed as functional, Influenza A virus (A/California/07/2009(H1N1)).
Chain of Nonstructural protein 1 (Q194T2 whole entry): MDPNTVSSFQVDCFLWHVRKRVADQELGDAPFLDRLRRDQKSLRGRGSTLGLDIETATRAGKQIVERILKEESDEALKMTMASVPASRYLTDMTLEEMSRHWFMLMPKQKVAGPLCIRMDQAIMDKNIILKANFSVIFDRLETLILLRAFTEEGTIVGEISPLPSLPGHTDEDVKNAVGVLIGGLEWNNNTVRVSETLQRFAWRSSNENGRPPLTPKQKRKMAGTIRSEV
A further assay deals with T4, Bcl-2-related protein A1 (Mus musculus, UniProt Q07440).
T4 sequence (Q07440 whole entry): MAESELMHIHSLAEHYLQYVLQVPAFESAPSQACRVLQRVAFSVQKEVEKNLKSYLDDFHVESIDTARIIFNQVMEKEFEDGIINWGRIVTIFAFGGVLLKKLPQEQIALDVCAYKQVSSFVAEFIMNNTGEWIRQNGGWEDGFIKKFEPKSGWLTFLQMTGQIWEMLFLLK
It is filed as functional.

In assay [6] the target is Peroxisome proliferator-activated receptor gamma/Nuclear receptor coactivator 1 (Homo sapiens, UniProt P37231). Description: TR-FRET dose response biochemical High Throughput Screening assay for agonists of the steroid receptor coactivator 1 (SRC-1) recruitment by the peroxisome proliferator-activated receptor gamma (PPAR gamma): non-selective agonists. [Related pubchem assays (depositor defined):AID1300, AID1808, AID504735, AID631]. The class given is protein assay.

For assay [7], the target named is Peroxisome proliferator-activated receptor gamma/Nuclear receptor coactivator 3 (Homo sapiens, UniProt P37231). Description: TR-FRET dose response biochemical High Throughput Screening assay for agonists of the steroid receptor coactivator 3 (SRC-3) recruitment by the peroxisome proliferator-activated receptor gamma (PPAR gamma): non-selective agonists. [Related pubchem assays: 1301 (Confirmation screen.), 1048 (Primary screen.)]. It is filed as functional.
Chain of Peroxisome proliferator-activated receptor gamma/Nuclear receptor coactivator 3 (P37231 whole entry): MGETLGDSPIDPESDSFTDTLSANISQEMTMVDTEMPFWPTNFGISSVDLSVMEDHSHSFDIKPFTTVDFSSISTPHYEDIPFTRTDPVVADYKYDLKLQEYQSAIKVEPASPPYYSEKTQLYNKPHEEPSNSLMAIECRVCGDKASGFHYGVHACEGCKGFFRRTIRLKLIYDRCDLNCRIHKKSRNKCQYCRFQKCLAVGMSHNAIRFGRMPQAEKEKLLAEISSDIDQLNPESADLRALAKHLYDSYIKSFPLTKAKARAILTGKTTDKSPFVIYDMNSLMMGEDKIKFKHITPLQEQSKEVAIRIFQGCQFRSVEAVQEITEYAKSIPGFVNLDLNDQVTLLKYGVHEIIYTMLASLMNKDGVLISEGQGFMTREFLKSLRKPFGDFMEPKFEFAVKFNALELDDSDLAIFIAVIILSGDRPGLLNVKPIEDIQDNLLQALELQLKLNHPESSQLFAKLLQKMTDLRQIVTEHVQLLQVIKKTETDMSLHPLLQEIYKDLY
Chain of Peroxisome proliferator-activated receptor gamma/Nuclear receptor coactivator 3 (Q9Y6Q9 whole entry, further chain): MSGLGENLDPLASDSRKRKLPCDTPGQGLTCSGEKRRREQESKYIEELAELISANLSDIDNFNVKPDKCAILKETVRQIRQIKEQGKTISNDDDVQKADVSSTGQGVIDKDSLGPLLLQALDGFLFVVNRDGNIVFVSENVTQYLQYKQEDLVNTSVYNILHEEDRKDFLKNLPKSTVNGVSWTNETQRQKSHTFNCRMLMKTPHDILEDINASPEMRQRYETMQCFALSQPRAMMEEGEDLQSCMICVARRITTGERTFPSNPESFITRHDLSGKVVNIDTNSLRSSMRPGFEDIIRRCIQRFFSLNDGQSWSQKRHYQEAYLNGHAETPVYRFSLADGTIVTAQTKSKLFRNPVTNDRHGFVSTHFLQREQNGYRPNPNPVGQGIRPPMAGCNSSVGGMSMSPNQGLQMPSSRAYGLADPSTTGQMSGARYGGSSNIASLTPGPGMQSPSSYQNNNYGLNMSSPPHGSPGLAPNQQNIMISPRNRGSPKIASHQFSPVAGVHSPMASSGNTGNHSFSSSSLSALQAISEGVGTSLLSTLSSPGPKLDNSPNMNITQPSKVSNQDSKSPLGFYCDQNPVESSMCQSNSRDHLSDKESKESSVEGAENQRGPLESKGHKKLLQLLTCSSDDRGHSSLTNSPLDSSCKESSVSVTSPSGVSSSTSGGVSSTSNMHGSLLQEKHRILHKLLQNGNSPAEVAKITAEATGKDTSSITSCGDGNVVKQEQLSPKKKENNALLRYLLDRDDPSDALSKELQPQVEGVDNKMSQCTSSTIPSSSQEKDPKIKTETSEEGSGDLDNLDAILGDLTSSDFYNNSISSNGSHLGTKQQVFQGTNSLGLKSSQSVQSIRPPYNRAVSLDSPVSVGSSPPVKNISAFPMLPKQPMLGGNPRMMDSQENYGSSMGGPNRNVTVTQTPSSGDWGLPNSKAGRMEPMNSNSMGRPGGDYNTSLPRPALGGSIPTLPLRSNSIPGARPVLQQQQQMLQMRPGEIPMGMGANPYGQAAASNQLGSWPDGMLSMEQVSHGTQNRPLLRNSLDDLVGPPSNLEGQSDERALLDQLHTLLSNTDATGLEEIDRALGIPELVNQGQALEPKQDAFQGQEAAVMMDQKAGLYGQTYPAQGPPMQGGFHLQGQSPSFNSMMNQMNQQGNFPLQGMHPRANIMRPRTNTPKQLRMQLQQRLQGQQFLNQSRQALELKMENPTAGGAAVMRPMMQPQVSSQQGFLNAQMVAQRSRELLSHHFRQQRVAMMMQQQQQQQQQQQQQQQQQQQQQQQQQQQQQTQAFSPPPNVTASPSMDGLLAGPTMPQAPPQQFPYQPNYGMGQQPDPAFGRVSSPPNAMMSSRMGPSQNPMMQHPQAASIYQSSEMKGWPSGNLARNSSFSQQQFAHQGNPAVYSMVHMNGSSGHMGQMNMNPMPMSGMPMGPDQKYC

In assay [8] the target is Peroxisome proliferator-activated receptor gamma/Nuclear receptor coactivator 2 (Homo sapiens, UniProt P37231). Description: TR-FRET dose response biochemical High Throughput Screening assay for agonists of the steroid receptor coactivator 2 (SRC-2) recruitment by the peroxisome proliferator-activated receptor gamma (PPAR gamma): non-selective agonists. [Related pubchem assays: 1297, 1032 ]. The class given is functional.
Chain of Peroxisome proliferator-activated receptor gamma/Nuclear receptor coactivator 2 (P37231 whole entry): as the sequence (P37231 whole entry) above
Chain of Peroxisome proliferator-activated receptor gamma/Nuclear receptor coactivator 2 (Q15596 whole entry, further chain): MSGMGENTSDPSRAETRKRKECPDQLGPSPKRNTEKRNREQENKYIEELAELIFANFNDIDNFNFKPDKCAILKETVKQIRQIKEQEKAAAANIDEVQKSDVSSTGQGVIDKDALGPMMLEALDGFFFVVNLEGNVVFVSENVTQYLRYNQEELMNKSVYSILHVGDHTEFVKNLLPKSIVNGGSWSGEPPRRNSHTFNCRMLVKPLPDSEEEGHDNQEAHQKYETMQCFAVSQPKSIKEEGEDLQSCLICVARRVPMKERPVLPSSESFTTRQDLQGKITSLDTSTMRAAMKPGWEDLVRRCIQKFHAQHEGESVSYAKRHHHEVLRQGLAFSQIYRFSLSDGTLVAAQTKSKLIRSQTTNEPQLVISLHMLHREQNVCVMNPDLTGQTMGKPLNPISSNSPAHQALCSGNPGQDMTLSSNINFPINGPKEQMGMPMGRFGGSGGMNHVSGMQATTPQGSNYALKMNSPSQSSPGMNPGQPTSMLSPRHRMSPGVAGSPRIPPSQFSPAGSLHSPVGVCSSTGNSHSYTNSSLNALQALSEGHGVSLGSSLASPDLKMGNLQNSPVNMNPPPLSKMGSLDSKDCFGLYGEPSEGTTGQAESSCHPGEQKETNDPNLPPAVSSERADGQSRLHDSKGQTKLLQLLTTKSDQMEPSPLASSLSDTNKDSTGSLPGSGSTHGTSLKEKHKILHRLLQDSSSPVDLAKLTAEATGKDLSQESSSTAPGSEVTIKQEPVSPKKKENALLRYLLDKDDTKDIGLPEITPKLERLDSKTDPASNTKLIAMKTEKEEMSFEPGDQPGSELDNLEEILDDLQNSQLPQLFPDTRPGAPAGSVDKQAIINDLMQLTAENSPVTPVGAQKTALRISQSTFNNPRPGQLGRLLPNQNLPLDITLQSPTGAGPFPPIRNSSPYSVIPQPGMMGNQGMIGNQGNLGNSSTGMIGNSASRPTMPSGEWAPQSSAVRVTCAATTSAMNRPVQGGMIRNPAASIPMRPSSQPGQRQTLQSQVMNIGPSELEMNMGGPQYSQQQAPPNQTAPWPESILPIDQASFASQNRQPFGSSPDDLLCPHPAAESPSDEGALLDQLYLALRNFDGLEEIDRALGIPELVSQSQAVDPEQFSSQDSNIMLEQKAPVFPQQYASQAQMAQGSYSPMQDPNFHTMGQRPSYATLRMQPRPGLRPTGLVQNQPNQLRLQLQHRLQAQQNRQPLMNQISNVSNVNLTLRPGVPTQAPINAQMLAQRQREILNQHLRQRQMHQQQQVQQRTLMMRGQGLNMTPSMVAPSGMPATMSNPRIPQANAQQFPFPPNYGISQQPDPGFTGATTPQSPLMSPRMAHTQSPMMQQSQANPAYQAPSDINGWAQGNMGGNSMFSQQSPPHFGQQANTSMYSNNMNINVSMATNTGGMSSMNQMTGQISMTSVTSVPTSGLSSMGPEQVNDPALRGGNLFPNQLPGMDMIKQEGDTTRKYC

The nature of assay [9]: HEK-293T cell viability reduction – luminescence, B-cell screen hits, cytotoxicity control for BCR NF-kB inhibitor project, dose response (AID 489021).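 Note: HEK-293T cells carrying an NF-kB luciferase reporter; cells exposed to compound for about 14 hours before viability readout.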 It is filed as functional, cell-based.
For assay [10], the target named is T5, Type-1 angiotensin II receptor (Homo sapiens, UniProt P30556).
T5 sequence (P30556 whole entry): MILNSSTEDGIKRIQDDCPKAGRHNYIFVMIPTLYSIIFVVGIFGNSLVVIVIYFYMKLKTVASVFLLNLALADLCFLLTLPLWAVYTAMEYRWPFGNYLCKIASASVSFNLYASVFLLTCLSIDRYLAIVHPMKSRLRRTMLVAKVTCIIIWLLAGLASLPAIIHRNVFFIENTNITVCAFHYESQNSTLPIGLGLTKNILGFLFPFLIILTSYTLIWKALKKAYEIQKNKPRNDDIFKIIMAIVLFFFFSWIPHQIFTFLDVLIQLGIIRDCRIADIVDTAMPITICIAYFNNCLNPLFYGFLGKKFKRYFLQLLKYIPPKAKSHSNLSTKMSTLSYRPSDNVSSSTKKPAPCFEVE
Description: antagonism of angiotensin II type 1 receptor – cell-based, uHTS hits, selectivity assay for APJ receptor antagonist project, dose response (AID 463214).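 Note: antagonist potency against angiotensin II stimulated AT1 response.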 It is filed as functional.

Assay [11] addresses Heat shock protein HSP 90-alpha (Homo sapiens, UniProt P07900). It is filed as functional, organism-based.
The target of another assay is Beta-galactosidase (Escherichia coli, UniProt Q8VNN2). In words: PubChem AID 485352. It is filed as functional.
For assay [12], the system named is HEK293. In words: cells. As to conditions: Homo sapiens.
Assay [13] concerns the target T6, Oxysterols receptor LXR-beta (Homo sapiens, UniProt P55055).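 Note: agonist activity at LXR measured by a cell-based luminescence readout across a dose range, run as a counterscreen for daf-12 agonists; HEK293 cells with Gal4-LXR fusion and GAL4-driven luciferase reporter; potency for activation of Gal4-LXR reporter so compounds are agonists.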
T6 sequence (P55055 whole entry): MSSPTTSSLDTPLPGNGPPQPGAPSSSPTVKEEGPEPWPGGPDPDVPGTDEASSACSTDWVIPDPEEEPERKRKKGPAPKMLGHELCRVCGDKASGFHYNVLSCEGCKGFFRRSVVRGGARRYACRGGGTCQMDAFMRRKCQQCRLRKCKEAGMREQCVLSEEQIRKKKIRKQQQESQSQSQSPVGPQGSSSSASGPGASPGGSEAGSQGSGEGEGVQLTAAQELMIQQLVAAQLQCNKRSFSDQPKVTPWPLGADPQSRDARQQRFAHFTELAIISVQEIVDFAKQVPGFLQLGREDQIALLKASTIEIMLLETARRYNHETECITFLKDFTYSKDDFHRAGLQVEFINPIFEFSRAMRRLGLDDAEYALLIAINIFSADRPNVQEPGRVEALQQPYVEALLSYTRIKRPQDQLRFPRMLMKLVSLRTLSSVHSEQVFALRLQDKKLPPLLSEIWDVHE
The class given is functional, cell-based.

In assay [14] the test system is HEK293. In words: cells. As to conditions: Homo sapiens. This is another data set of the same source.

Active and inactive are the calls of the source.

Consider `CN1CCN(c2cc(-c3cc(O)c4ncccc4c3)ccn2)CC1`, for which the half-inhibitory concentration (IC50) in assay [1] was 15.6 µM (active); in assay [3], 6.88 µM (active); in assay [4] it was 10.8 µM (active); in [5] it was 5.17 µM (active); at Nonstructural protein 1, 9.85 µM (active); on Bcl-2-related protein A1, 12.5 µM (active). The AC50 in assay [2] was 1.58 µM (active).
As for `CCCCc1nc2sc3c(SCC(=O)NCc4ccco4)ncnc3c2c2c1CCC2`, the values for the EC50 in assay [6], in assay [7] and in assay [8] were 78.6 µM (inactive), > 79.4 µM (not active) and 58.8 µM (not active), respectively.
With `Cc1cc(N2C(=O)C(O)=C(C(=O)c3ccc(Cl)cc3)C2c2cccc(Br)c2)no1` (stereo not drawn), the values for the EC50 in assay [6], in [7] and in assay [8] were > 79.4 µM (inactive), > 79.4 µM (not active) and 113 µM (not active), respectively.
Regarding `Cn1c(=O)cc(SCC(=O)N2CCCC2)c2cc(Cl)ccc21`, the EC50 in [6] was > 79.4 µM (inactive); in [7], > 79.4 µM (not active); in assay [8], > 79.4 µM (not active). The IC50 in assay [9] is > 80 µM (inactive).
For `COc1cccc(/C=C/c2ccc3cccc(O)c3n2)c1`, the half-inhibitory concentration (IC50) in assay [10] was 15.1 µM (active). The concentration at half-maximal activity (AC50) in assay [11] was 24.4 µM (active). In addition, the EC50 is > 40 µM (inactive) at Beta-galactosidase, > 0.0091 µM (active) with HEK293 [12], > 67.5 µM (inactive) in [13] and > 59.7 µM (inactive) in the assay with HEK293 [14].
